According to publication PMC11997881, “Comprehensive Characterization of Bruton’s Tyrosine Kinase Inhibitor Specificity, Potency, and Biological Effects: Insights into Covalent and Noncovalent Mechanistic Signatures” (ACS Pharmacology & Translational Science, 2025):

Columns and labels:
JNK1 (MAPK8) = JNK1 (MAPK8) (Homo sapiens, UniProt P45983); assay: scanMAX binding POC, JNK1; conditions: 1 μM
Description: (§9) The compounds were diluted directly into the assays such that the final concentration of DMSO was 0.9%. No enzyme purification steps were performed on the protein extracts before adding them to the reaction mixture, and the protein extracts were diluted 10,000-fold in the final reaction mixture (the final DNA-tagged enzyme concentration was less than 0.1 nM). Binding assay mixtures were incubated at 25 °C with shaking for 1 h. […] The concentration of wild-type or mutant BTK in the eluates was then determined using quantitative PCR. […] Each assay’s affinity ligand concentration on the magnetic beads has been optimized to ensure that the true thermodynamic Kd values for competitor molecules were measured, as described in detail previously99.
(§10) Comparison of BTK inhibitor specificity to c-Jun N-terminal kinases (JNK1-3/MAPKP8-10).
(§11) a The percent of control (POC) is the percent of kinase that was competed off its control ligand relative to the positive and negative controls at the screening concentration56. A zero POC signifies that the compound

BLK = BLK (Homo sapiens, UniProt P51451); assay: scanMAX binding POC, BLK; conditions: 1 μM
TXK = molecular target: T1, TXK (Homo sapiens, UniProt P42681); assay: scanMAX binding POC, TXK; conditions: 1 μM
T1 sequence (P42681 1-527): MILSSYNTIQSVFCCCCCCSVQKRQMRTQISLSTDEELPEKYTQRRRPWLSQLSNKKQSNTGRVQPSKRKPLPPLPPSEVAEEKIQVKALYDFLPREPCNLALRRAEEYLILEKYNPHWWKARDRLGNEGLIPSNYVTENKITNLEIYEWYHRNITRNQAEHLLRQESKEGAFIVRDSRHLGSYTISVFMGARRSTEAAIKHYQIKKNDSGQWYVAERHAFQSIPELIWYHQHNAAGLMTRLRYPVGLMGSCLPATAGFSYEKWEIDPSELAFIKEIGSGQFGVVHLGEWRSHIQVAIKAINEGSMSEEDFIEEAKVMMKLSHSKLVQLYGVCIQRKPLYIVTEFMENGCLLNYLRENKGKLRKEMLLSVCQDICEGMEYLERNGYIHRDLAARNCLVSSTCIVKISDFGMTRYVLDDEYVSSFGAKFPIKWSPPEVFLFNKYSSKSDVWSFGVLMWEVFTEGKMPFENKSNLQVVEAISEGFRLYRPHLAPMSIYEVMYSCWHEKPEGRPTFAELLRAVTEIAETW
Description: (§1) Comprehensive Characterization of Bruton’s Tyrosine Kinase Inhibitor Specificity, Potency, and
(§2) Biological Effects: Insights into Covalent and Non-Covalent Mechanistic Signatures
(§3) Antonia C. Darragh1, Andrew M. Hanna1, Justin H. Lipner2, Alastair J. King2, Nicole B. Servant1, Mirza Jahic1*
(§4) *To whom correspondence should be addressed: Mirza Jahic, e-mail address: Mirza.Jahic@discovery.eurofinsus.com
(§5) Supporting Table S1. Comparison of BTK inhibitor specificity to TEC family members. TEC family members are
(§6) Burton’s tyrosine kinase (BTK), tyrosine kinase expressed in hepatocellular carcinoma (TEC), bone marrow-
(§7) expressed kinase (BMX/ETK), and T cell-expressed kinase (TXK/RLK), and interleukin-2-inducible T cell kinase
(§8) A zero POC signifies that the compound

[1] = molecular target: T2, JAK3 (JH1 catalytic domain) (Homo sapiens, UniProt P52333); assay: scanMAX binding POC, JAK3; conditions: 1 μM
T2 construct: The JAK3 POC is for its JH1 catalytic domain

MKK7 = molecular target: T3, MKK7 (Homo sapiens, UniProt O14733); assay: scanMAX binding POC, MKK7; conditions: 1 μM
T3 sequence (O14733 1-419): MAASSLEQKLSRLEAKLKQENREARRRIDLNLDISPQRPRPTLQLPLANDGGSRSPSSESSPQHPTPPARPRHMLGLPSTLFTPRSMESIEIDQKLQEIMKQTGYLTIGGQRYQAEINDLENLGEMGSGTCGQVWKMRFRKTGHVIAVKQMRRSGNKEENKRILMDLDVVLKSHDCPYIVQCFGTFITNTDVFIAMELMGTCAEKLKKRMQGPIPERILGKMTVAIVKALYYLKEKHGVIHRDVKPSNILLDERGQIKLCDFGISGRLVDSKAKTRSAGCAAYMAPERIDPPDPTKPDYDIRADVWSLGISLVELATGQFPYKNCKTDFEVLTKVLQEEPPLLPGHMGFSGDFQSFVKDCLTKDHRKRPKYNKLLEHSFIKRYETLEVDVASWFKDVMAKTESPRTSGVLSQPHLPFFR

ERBB3 = ERBB3 (Homo sapiens, UniProt P21860); assay: scanMAX binding POC, ERBB3; conditions: 1 μM
JNK3 (MAPK10) = JNK3 (MAPK10) (Homo sapiens, UniProt P53779); assay: scanMAX binding POC, JNK3; conditions: 1 μM
Description: as §9, §10, §11

BTK [2] = molecular target: T4, BTK (Homo sapiens, UniProt Q06187); assay: scanMAX binding POC, BTK; conditions: 1 μM; zero POC = competition comparable to positive control
T4 construct: host or cells: transiently transfected HEK293 cells
Description: as §1, §2, §3, §4, §5, §6, §7, §8

ERBB4 = ERBB4 (Homo sapiens, UniProt Q15303); assay: scanMAX binding POC, ERBB4; conditions: 1 μM
ERBB2 = ERBB2 (Homo sapiens, UniProt P04626); assay: scanMAX binding POC, ERBB2; conditions: 1 μM
ITK = molecular target: T5, ITK (Homo sapiens, UniProt Q08881); assay: scanMAX binding POC, ITK; conditions: 1 μM
T5 sequence (Q08881 1-620): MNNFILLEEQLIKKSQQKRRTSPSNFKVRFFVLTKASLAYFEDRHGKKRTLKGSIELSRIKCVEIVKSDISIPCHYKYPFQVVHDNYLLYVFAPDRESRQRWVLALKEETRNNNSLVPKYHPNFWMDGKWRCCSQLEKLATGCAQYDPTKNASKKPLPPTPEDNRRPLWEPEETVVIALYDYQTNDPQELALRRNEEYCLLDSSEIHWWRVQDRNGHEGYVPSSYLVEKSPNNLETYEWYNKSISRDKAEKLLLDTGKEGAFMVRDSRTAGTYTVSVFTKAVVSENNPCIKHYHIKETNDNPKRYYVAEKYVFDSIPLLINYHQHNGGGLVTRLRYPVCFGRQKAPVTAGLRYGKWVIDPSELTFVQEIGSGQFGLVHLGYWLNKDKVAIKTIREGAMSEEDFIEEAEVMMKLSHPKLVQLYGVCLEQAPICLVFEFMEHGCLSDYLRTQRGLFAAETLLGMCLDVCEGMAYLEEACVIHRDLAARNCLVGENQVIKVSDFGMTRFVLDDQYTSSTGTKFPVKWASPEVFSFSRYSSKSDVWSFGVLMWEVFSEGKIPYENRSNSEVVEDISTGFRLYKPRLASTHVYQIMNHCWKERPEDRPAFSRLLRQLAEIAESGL
Description: as §1, §2, §3, §4, §5, §6, §7, §8

EGFR = EGFR (Homo sapiens, UniProt P00533); assay: scanMAX binding POC, EGFR; conditions: 1 μM
TEC = molecular target: T6, TEC (Homo sapiens, UniProt P42680); assay: scanMAX binding POC, TEC; conditions: 1 μM
T6 sequence (P42680 1-631): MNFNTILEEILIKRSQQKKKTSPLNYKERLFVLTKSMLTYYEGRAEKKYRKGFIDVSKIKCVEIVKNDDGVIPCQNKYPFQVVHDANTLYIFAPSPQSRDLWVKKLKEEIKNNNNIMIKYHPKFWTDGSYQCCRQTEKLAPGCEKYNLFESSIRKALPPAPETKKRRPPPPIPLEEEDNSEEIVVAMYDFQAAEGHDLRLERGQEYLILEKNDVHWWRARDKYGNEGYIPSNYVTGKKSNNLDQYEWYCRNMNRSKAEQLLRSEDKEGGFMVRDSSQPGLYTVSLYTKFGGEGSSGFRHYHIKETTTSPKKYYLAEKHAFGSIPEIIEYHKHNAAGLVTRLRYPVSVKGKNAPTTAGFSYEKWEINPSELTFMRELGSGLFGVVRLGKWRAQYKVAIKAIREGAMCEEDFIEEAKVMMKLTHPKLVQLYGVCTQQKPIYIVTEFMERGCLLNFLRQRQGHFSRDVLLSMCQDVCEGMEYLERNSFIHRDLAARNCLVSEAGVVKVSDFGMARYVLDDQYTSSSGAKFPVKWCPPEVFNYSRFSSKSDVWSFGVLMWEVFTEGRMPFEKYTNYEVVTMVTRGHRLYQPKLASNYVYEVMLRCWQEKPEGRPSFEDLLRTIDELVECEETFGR
Description: as §1, §2, §3, §4, §5, §6, §7, §8

JNK2 (MAPK9) = JNK2 (MAPK9) (Homo sapiens, UniProt P45984); assay: scanMAX binding POC, JNK2; conditions: 1 μM
Description: as §9, §10, §11

[3] = system: 468 kinases/kinase domains; conditions: scanMAX at 1 μM, POC <35
Description: The compounds were diluted directly into the assays such that the final concentration of DMSO was 0.9%. No enzyme purification steps were performed on the protein extracts before adding them to the reaction mixture, and the protein extracts were diluted 10,000-fold in the final reaction mixture (the final DNA-tagged enzyme concentration was less than 0.1 nM). Binding assay mixtures were incubated at 25 °C with shaking for 1 h. […] The concentration of wild-type or mutant BTK in the eluates was then determined using quantitative PCR.

BTK [4] = conditions: cited from earlier work
BMX = molecular target: T7, BMX (Homo sapiens, UniProt P51813); assay: scanMAX binding POC, BMX; conditions: 1 μM
T7 sequence (P51813 1-675): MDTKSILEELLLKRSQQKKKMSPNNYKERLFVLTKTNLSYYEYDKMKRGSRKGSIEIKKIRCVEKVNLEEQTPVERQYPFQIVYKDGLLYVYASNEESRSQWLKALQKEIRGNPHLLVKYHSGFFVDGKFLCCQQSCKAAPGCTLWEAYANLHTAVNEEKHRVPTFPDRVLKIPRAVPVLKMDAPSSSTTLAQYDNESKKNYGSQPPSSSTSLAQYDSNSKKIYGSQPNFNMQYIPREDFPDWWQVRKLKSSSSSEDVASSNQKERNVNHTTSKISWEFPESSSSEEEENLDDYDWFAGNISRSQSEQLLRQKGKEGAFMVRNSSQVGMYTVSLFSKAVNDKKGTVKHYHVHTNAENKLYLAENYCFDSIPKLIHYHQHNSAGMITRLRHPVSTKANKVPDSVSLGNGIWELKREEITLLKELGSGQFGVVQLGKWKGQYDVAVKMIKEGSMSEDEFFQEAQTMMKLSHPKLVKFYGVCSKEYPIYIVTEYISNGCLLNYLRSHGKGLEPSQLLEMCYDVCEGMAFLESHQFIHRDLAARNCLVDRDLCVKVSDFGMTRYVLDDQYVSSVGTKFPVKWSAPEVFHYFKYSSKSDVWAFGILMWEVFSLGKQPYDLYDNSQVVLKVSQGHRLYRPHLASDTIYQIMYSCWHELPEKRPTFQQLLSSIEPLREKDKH
Description: as §1, §2, §3, §4, §5, §6, §7, §8

T2 sequence (P52333 822-1111 limits assumed): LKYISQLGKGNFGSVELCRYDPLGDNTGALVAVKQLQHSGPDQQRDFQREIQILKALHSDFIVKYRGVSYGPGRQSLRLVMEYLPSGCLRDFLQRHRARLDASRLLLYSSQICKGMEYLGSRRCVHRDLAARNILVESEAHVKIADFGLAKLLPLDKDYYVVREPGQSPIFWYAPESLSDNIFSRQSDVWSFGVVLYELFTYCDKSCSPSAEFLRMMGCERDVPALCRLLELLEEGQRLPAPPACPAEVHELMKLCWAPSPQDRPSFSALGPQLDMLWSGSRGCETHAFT
ERBB4, sequence (Q15303 26-1308): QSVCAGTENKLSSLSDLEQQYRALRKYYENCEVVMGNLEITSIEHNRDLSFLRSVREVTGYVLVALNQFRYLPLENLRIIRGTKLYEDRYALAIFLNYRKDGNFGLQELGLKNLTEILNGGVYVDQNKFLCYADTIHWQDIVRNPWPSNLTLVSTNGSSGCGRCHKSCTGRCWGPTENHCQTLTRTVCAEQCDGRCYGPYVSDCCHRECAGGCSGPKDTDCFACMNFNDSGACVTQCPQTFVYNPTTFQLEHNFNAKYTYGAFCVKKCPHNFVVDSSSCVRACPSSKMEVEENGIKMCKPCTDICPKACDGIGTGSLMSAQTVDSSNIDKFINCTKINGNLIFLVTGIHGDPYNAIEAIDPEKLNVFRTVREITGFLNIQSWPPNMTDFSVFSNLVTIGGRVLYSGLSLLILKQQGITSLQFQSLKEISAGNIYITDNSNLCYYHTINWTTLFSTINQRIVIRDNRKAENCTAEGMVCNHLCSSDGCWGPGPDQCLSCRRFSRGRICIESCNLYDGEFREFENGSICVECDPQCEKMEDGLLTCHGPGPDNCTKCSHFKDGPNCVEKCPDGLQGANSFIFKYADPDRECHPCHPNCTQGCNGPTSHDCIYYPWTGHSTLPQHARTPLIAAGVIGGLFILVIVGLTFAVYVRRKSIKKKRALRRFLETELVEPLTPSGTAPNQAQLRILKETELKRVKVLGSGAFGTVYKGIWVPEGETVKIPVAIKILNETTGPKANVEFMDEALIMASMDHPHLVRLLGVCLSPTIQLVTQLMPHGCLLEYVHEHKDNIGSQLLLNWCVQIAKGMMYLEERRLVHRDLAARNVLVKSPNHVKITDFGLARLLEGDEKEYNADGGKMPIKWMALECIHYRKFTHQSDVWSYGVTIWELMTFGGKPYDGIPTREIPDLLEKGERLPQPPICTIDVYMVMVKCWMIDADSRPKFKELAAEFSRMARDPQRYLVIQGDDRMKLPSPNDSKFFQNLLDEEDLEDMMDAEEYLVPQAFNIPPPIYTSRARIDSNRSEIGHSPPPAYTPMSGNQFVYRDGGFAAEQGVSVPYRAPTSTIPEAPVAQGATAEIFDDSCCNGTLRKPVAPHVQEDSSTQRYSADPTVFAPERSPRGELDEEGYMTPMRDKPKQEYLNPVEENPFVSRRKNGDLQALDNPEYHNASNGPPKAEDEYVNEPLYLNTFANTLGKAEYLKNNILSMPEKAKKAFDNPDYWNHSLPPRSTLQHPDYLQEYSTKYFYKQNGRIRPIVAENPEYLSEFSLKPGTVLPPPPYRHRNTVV
ERBB3, sequence (P21860 20-1342): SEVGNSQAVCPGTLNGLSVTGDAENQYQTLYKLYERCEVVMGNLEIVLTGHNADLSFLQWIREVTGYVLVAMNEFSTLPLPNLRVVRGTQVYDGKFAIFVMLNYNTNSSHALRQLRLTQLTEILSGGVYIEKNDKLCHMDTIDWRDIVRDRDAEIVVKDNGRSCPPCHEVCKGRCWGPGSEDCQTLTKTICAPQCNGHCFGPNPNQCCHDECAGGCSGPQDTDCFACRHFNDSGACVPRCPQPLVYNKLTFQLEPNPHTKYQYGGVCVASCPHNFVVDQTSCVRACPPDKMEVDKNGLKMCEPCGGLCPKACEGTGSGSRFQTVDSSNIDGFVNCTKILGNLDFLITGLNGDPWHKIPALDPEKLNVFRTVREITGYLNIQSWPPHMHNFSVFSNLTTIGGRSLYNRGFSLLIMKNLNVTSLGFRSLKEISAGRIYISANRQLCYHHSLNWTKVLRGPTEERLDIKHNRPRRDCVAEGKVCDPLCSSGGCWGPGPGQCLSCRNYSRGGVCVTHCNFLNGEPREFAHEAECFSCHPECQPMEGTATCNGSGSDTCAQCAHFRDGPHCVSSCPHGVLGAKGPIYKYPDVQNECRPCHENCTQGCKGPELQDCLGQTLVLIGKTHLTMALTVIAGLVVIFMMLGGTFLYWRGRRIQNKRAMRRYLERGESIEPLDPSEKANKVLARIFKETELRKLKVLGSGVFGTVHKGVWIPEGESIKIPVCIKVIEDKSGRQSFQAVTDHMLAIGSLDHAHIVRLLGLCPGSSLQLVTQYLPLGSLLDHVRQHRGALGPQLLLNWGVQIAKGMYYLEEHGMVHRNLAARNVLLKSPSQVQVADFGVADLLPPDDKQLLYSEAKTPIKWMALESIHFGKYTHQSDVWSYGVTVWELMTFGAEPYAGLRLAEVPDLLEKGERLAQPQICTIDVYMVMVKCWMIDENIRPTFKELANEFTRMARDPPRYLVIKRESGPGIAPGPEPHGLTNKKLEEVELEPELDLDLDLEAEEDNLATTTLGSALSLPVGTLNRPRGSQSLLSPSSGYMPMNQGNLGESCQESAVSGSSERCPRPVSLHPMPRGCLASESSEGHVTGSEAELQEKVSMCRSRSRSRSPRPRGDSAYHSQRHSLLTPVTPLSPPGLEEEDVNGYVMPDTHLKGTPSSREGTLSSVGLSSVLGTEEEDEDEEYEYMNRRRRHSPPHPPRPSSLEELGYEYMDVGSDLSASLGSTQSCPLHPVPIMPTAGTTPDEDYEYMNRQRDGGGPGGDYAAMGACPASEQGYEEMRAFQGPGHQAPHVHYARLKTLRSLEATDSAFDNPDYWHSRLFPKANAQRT
JNK3 (MAPK10), sequence (P53779 whole entry): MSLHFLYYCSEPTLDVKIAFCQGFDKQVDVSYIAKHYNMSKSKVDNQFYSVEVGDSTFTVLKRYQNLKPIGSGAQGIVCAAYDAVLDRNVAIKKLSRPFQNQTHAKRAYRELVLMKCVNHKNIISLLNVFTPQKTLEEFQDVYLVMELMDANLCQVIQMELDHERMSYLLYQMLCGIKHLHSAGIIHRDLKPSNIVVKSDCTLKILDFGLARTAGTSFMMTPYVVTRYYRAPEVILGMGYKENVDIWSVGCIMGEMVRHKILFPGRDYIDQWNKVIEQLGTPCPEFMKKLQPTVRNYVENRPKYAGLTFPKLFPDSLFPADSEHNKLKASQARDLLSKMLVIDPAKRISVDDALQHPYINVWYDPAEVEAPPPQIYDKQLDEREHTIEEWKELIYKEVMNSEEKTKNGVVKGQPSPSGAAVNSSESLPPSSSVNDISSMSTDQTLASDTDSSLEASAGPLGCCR
BLK, sequence (P51451 whole entry): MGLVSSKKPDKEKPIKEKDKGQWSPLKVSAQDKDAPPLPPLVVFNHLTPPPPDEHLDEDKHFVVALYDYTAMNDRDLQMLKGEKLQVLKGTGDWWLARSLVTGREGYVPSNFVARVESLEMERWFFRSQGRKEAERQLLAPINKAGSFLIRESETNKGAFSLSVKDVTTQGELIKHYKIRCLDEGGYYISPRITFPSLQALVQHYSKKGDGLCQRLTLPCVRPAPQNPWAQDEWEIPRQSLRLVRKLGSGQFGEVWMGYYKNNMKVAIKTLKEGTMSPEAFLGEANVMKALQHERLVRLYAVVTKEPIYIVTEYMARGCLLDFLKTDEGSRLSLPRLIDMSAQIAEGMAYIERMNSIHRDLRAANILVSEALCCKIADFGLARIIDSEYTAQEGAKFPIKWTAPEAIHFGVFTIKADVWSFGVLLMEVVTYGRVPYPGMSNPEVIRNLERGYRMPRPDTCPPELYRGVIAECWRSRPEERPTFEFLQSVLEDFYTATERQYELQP
JNK2 (MAPK9), sequence (P45984 whole entry, the tested form may be a part): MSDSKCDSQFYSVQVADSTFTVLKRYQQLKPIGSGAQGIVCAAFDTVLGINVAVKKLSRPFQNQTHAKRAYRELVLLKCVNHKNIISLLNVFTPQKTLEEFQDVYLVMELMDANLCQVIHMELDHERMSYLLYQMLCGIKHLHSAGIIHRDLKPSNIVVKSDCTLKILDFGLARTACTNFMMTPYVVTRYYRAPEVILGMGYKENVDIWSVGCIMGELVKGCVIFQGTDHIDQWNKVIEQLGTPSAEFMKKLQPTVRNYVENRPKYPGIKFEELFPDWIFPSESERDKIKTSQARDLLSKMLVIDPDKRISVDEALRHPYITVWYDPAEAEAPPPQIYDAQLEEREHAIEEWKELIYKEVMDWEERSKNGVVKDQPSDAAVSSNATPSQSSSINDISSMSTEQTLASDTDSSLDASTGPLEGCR
JNK1 (MAPK8), sequence (P45983 whole entry): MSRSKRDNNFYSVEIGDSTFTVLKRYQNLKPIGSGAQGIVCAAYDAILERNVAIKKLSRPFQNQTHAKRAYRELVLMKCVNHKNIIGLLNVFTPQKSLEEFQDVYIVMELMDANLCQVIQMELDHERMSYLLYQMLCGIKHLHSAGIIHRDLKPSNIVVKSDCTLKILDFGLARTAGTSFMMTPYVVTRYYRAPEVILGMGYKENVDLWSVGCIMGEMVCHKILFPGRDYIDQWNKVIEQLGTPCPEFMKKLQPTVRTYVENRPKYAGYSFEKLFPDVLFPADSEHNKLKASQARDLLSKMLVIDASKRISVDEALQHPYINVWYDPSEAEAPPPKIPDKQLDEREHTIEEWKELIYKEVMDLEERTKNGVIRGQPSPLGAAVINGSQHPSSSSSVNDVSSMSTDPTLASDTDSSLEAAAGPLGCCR

Compound | JNK1 (MAPK8) POC (JNK1 (MAPK8)) | BLK binding POC (BLK) | TXK binding POC (TXK) | JAK3 binding POC [1] | MKK7 binding POC (MKK7) | ERBB3 binding POC (ERBB3) | JNK3 (MAPK10) POC (JNK3 (MAPK10)) | BTK binding POC (BTK [2]) | ERBB4 binding POC (ERBB4) | ERBB2 binding POC (ERBB2) | ITK binding POC (ITK) | EGFR binding POC (EGFR) | TEC binding POC (TEC) | JNK2 (MAPK9) POC (JNK2 (MAPK9)) | off-target hits [3] | IC50 (BTK [4]) [nM] | BMX binding POC (BMX) | MKK7 binding POC (MKK7; listed as tolebrutinib)
CC#CC(=O)N[C@H]1CCCN(c2c(F)cc(C(N)=O)c3[nH]c(C)c(C)c23)C1 [Branebrutinib] | 82% of control | 3.2% of control | 2% of control | 48% of control | 100% of control | 75% of control | 89% of control | 0% of control | 75% of control | 100% of control | 17% of control | 77% of control | 7.8% of control | 89% of control | – | – | – | –
C=CC(=O)N1CCC(CNc2ncnc(N)c2-c2ccc(Oc3ccccc3)cc2)CC1 [Evobrutinib] | 95% of control | – | 23% of control | 100% of control | 100% of control | 97% of control | 100% of control | – | 32% of control | 91% of control | – | 88% of control | 10% of control | 100% of control | – | – | – | –
C=CC(=O)N(C)CCOc1c(N)ncnc1-c1cc(F)cc(NC(=O)c2ccc(C3CC3)cc2F)c1C [Remibrutinib] | 93% of control | 100% of control | 97% of control | 100% of control | 100% of control | 100% of control | 100% of control | 0.15% of control | 100% of control | 100% of control | 97% of control | 99% of control | 20% of control | 99% of control | one | 1.3 | – | –
C=CC(=O)N1CCC[C@@H](n2c(=O)n(-c3ccc(Oc4ccccc4)cc3)c3c(N)nccc32)C1 [Tolebrutinib] | 96% of control | 0.05% of control | 1.1% of control | 36% of control | 19% of control | 0.8% of control | 90% of control | – | – | 0% of control | 67% of control | – | – | 83% of control | – | – | 11% of control | weak hit
